Laboratory results reported in paper PMC10818931, “In Vitro Evaluation of Drug–Drug Interaction Potential of Epetraborole, a Novel Bacterial Leucyl-tRNA Synthetase Inhibitor” (Pharmaceuticals, 2024).

Assays:
Experiment in all cases: Uptake transporter inhibition in transfected HEK 293 or MDCK cells
Assay type in all cases: in vitro ADME
OAT3 = target: T1, OAT3 (Homo sapiens, UniProt Q8TCC7); conditions: for Inhibition (in words): concentrations up to 1000 μM; for IC50: read-out: as an Inhibitor, IC50
T1 construct: host or cells: MDCK
T1 sequence (Q8TCC7 1-542): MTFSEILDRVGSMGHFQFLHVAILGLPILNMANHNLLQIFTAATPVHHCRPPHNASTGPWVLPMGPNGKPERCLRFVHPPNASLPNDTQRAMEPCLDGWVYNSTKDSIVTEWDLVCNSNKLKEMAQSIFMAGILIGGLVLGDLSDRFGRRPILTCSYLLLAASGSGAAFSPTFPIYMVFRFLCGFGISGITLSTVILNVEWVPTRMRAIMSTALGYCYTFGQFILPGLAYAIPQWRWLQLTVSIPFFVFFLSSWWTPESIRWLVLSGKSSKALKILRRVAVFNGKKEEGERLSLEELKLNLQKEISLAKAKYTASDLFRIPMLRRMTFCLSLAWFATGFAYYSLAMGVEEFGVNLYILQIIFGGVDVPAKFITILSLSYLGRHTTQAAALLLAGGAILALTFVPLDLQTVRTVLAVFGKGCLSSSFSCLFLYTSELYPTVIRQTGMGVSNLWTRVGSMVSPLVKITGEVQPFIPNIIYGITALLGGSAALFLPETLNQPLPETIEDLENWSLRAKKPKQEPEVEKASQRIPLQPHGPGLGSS
Method: (§1) Cell monolayers were preincubated (37 °C) for 15 to 30 min in a transport medium containing the target concentration of EBO or a specific inhibitor without substrate. Following the removal of preincubation solutions, appropriate working solutions containing EBO at the target concentration plus the probe substrate were added to the wells in triplicate. Separate sets of triplicate wells were designated for probe substrate only and probe substrate plus the specific inhibitors, to determine the maximal uptake rate and maximal inhibition of uptake, respectively. After incubation at 37 °C for each transporter, the working solution was removed from each well and the experiment was stopped by washing three times with cold (4 °C) DPBS. Depending on the substrate label, cells were either lysed for the analysis of total radioactivity (liquid scintillation counter) or LC-MS/MS methods. For measuring relative fluorescence (FLUOstar Galaxy, Cary, NC, USA), cells were not lysed.

OATP1B1 = target: T2, OATP1B1 (Homo sapiens, UniProt Q9Y6L6)
T2 construct: host or cells: MDCK
T2 sequence (Q9Y6L6 1-691): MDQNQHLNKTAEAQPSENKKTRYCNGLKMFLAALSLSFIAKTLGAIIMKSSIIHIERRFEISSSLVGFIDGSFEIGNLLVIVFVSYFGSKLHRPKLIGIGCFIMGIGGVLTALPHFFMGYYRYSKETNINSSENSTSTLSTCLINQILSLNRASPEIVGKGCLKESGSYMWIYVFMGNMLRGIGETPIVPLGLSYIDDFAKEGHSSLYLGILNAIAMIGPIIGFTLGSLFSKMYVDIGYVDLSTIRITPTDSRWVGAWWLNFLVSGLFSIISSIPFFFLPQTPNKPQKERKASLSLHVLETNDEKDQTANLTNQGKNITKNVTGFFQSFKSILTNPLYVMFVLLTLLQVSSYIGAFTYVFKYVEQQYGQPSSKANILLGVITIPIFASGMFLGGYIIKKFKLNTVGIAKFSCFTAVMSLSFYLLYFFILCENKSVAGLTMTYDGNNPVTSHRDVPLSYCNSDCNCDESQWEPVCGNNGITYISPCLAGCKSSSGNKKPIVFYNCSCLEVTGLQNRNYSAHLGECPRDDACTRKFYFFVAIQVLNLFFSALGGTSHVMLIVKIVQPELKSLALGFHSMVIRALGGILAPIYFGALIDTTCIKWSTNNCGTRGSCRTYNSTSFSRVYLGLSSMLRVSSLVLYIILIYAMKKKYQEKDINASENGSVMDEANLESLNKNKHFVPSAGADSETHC
Method: as §1

OATP1B3 = target: T3, OATP1B3 (Homo sapiens, UniProt Q9NPD5)
T3 construct: host or cells: MDCK
T3 sequence (Q9NPD5 1-702): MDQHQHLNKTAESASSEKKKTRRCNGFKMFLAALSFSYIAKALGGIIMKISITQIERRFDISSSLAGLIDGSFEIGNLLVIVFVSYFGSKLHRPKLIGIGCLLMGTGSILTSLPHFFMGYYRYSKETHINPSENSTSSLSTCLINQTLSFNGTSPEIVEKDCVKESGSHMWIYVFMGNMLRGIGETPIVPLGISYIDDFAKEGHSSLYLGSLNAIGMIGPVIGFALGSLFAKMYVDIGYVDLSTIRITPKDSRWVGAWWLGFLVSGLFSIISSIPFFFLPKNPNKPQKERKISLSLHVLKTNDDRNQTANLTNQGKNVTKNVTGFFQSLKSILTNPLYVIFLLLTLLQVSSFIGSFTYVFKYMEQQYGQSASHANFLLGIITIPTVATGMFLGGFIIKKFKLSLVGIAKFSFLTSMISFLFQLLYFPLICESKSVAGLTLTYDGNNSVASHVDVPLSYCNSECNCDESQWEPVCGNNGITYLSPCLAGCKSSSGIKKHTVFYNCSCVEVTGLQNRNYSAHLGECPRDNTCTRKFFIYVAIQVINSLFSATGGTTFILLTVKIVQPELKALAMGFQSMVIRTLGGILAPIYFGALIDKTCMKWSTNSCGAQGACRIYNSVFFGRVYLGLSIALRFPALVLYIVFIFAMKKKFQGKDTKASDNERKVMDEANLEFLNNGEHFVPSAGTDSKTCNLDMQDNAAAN
Method: as §1

OCT1 = target: T4, OCT1 (Homo sapiens, UniProt O15245)
T4 construct: expressed in transfected cells; host or cells: HEK 293 or MDCK
T4 sequence (O15245 whole entry): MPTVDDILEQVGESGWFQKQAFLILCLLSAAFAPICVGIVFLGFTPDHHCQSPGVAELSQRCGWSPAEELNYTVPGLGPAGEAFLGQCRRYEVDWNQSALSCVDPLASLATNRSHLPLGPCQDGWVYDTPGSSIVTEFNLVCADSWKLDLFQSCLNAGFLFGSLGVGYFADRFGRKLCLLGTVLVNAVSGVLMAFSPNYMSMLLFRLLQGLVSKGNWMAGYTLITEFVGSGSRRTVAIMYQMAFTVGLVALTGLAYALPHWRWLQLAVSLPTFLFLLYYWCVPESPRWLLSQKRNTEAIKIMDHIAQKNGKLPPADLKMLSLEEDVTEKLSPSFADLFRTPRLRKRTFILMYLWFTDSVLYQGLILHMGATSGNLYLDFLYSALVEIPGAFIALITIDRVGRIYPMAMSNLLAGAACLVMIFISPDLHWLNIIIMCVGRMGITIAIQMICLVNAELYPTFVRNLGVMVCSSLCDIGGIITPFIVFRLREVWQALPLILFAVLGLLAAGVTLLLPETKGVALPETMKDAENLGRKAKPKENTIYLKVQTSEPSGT
Method: as §1

[1] = read-out: as an Inhibitor, IC50

`NC[C@H]1OB(O)c2c(OCCCO)cccc21` [EBO, Epetraborole] was tested, and the “Inhibition (in words)” value (OAT3) was “did not inhibit”, the IC50 (OAT3) was > 1000 µM and the inhibition at 500 µM (OATP1B1; human, HEK 293 or MDCK cells transfected with OATP1B1, at 500 µM) was 25%. For the same compound, the inhibition at 500 µM (OATP1B3; human, HEK 293 or MDCK cells transfected with OATP1B3, at 500 µM) was 21% and the inhibition at 1000 µM (OCT1; human, HEK 293 or MDCK cells transfected with OCT1, probe metformin, metformin transport, at 1000 µM (maximum tested)) was 59%.
With `NC[C@H]1OB(O)c2c(OCCC(=O)O)cccc21` [M3] the “Inhibition (in words)” value (OAT3) was “did not inhibit”, the IC50 (OAT3) was > 1000 µM and the IC50 (OATP1B1; [1]) was > 250 µM. The IC50 (OATP1B3; [1]) was > 250 µM and the IC50 (OCT1; [1]) was > 250 µM.
